# Test results as given in paper PMC8286840, “Identifying SARS-CoV-2 antiviral compounds by screening for small molecule inhibitors of Nsp3 papain-like protease” (Biochemical Journal, 2021).
# Counter-ions that a name gives are not always drawn. Like-named read-outs stand apart in the source and are kept apart here.
# Assays:
# [1] = biological target: T1, SARS-CoV-2 PLpro (nsp3 1564–1878) (Severe acute respiratory syndrome coronavirus 2, UniProt P0DTD1); experiment: biochemical; set-up: FRET-quenched peptide (Pro3) cleavage by PLpro, 10 min pre-incubation, slope over 20 min, normalised to no-compound control; conditions: low concentration screen, read-out: % of control remaining
# [2] = biological target: T1, SARS-CoV-2 PLpro (nsp3 1564–1878); experiment: biochemical; set-up: FRET-quenched peptide (Pro3) cleavage by PLpro, 10 min pre-incubation, slope over 20 min, normalised to no-compound control; conditions: high concentration screen, read-out: % of control remaining
compound,measurement,setting,value
CC1(COc2ccc(CC3SC(=O)NC3=O)cc2)CCCCC1 (stereo not shown) [Ciglitazone],remaining activity at 1.25 µM,[1]; Well no.=4236,110%
same,remaining activity at 3.75 µM,[2]; Well no.=4236,107%
CC1(COc2ccc(CC3SC(=O)NC3=O)cc2)CCCCC1 (stereo not shown) [Ciglitizone],remaining activity at 1.25 µM,[1]; Well no.=222,99%
same,remaining activity at 3.75 µM,[2]; Well no.=222,97.7%
CC1(C)C[C@@H]1C(=O)N/C(=C\CCCCSC[C@H](N)C(=O)O)C(=O)O [Cilastatin],remaining activity at 1.25 µM,[1]; Well no.=2198,94.3%
same,remaining activity at 3.75 µM,[2]; Well no.=2198,95.6%
"CC(C)[C@H]1C(=O)N[C@@H](CCCNC(=N)N)C(=O)NCC(=O)N[C@@H](CC(=O)O)C(=O)N[C@H](Cc2ccccc2)C(=O)N1C [Cilengitide (EMD 121974, NSC 707544)]",remaining activity at 1.25 µM,[1]; Well no.=5174,94.8%
same,remaining activity at 3.75 µM,[2]; Well no.=5174,96.2%
COCCOC(=O)C1=C(C)NC(C)=C(C(=O)OC/C=C/c2ccccc2)C1c1cccc([N+](=O)[O-])c1 (stereo not shown) [Cilnidipine],remaining activity at 1.25 µM,[1]; Well no.=1759,98.8%
same,remaining activity at 3.75 µM,[2]; Well no.=1759,98.3%
CN(C(=O)CCCOc1ccc2[nH]c(=O)ccc2c1)C1CCCCC1 [Cilostamide],remaining activity at 1.25 µM,[1]; Well no.=234,91.5%
same,remaining activity at 1.25 µM,[1]; Well no.=2142,95.9%
same,remaining activity at 3.75 µM,[2]; Well no.=234,94.4%
same,remaining activity at 3.75 µM,[2]; Well no.=2142,98.8%
O=C1CCc2cc(OCCCCc3nnnn3C3CCCCC3)ccc2N1 [Cilostazol],remaining activity at 1.25 µM,[1]; Well no.=281,94.5%
same,remaining activity at 3.75 µM,[2]; Well no.=281,95.3%
CC(C)NCC(O)c1ccc(N)c(C#N)c1 (stereo not shown) [Cimaterol],remaining activity at 1.25 µM,[1]; Well no.=1779,102%
same,remaining activity at 3.75 µM,[2]; Well no.=1779,99.7%
CN/C(=N\CCSCc1nc[nH]c1C)NC#N [Cimetidine],remaining activity at 1.25 µM,[1]; Well no.=272,88%
same,remaining activity at 1.25 µM,[1]; Well no.=1875,96.3%
same,remaining activity at 1.25 µM,[1]; Well no.=7328,94.5%
same,remaining activity at 3.75 µM,[2]; Well no.=272,93.4%
same,remaining activity at 3.75 µM,[2]; Well no.=1875,99.3%
same,remaining activity at 3.75 µM,[2]; Well no.=7328,97.6%
C[C@@H](NCCCc1cccc(C(F)(F)F)c1)c1cccc2ccccc12 [Cinacalcet (hydrochloride)],remaining activity at 1.25 µM,[1]; Well no.=7426,104%
same,remaining activity at 3.75 µM,[2]; Well no.=7426,104%
C[C@@H](NCCCc1cccc(C(F)(F)F)c1)c1cccc2ccccc12 [Cinacalcet],remaining activity at 1.25 µM,[1]; Well no.=7389,96.2%
same,remaining activity at 3.75 µM,[2]; Well no.=7389,82.2%
CN(C)CCCSc1ccccc1NC(=O)/C=C/c1ccccc1 [Cinanserin],remaining activity at 1.25 µM,[1]; Well no.=2094,101%
same,remaining activity at 3.75 µM,[2]; Well no.=2094,101%
C=C[C@H]1CN2CC[C@H]1C[C@@H]2[C@@H](O)c1ccnc2ccccc12 [Cinchonine],remaining activity at 1.25 µM,[1]; Well no.=7012,97.3%
same,remaining activity at 3.75 µM,[2]; Well no.=7012,93.6%
COc1cc(/C=C/C(=O)N2CCN(CC(=O)N3CCCC3)CC2)cc(OC)c1OC [Cinepazide maleate],remaining activity at 1.25 µM,[1]; Well no.=5271,95.9%
same,remaining activity at 3.75 µM,[2]; Well no.=5271,96.6%
Nc1c(C(=O)O)c2nc3c(C(=O)O)cccc3oc-2cc1=O [Cinnabarinic Acid],remaining activity at 1.25 µM,[1]; Well no.=5384,91.8%
same,remaining activity at 3.75 µM,[2]; Well no.=5384,96.7%
O=C(O)/C=C/c1ccccc1 [Cinnamic acid],remaining activity at 1.25 µM,[1]; Well no.=7011,104%
same,remaining activity at 3.75 µM,[2]; Well no.=7011,105%
CCn1nc(C(=O)O)c(=O)c2cc3c(cc21)OCO3 [Cinoxacin],remaining activity at 1.25 µM,[1]; Well no.=332,98.1%
same,remaining activity at 3.75 µM,[2]; Well no.=332,96.9%
CC(C)(C[C@H]1CN(S(=O)(=O)c2cccc(C(F)(F)F)c2)c2cc(-c3cc(F)cc(OC(F)F)c3)ccc2O1)C(=O)O [Cintirorgon],remaining activity at 1.25 µM,[1]; Well no.=8171,99.9%
same,remaining activity at 3.75 µM,[2]; Well no.=8171,98.6%
CC(C)(Oc1ccc(C2CC2(Cl)Cl)cc1)C(=O)O (stereo not shown) [Ciprofibrate],remaining activity at 1.25 µM,[1]; Well no.=41,92.6%
same,remaining activity at 3.75 µM,[2]; Well no.=41,93.5%
O=C(O)c1cn(C2CC2)c2cc(N3CCNCC3)c(F)cc2c1=O [Ciprofloxacin],remaining activity at 1.25 µM,[1]; Well no.=2263,99%
same,remaining activity at 3.75 µM,[2]; Well no.=2263,100%
O=C(c1ccc(OCCCc2c[nH]cn2)cc1)C1CC1 [Ciproxifan (maleate)],remaining activity at 1.25 µM,[1]; Well no.=7089,103%
same,remaining activity at 3.75 µM,[2]; Well no.=7089,105%
O=C(c1ccc(OCCCc2c[nH]cn2)cc1)C1CC1 [Ciproxifan],remaining activity at 1.25 µM,[1]; Well no.=5316,101%
same,remaining activity at 3.75 µM,[2]; Well no.=5316,97%
c1ccc(C2CC2)c(OCC2=NCCN2)c1 [Cirazoline hydrochloride],remaining activity at 1.25 µM,[1]; Well no.=537,106%
same,remaining activity at 3.75 µM,[2]; Well no.=537,103%
CN(C)CCCC1(c2ccc(F)cc2)OCc2cc(C#N)ccc21 (stereo not shown) [Citalopram hydrobromide],remaining activity at 1.25 µM,[1]; Well no.=90,95%
same,remaining activity at 3.75 µM,[2]; Well no.=90,100%
CN(C)CCCC1(c2ccc(F)cc2)OCc2cc(C#N)ccc21 (stereo not shown) [Citalopram],remaining activity at 1.25 µM,[1]; Well no.=2265,97.4%
same,remaining activity at 3.75 µM,[2]; Well no.=2265,103%
C[N+](C)(C)CCOP(=O)(O)OP(=O)([O-])OC[C@H]1O[C@@H](n2ccc(N)nc2=O)[C@H](O)[C@@H]1O [Citicoline sodium salt],remaining activity at 1.25 µM,[1]; Well no.=7726,104%
same,remaining activity at 3.75 µM,[2]; Well no.=7726,110%
C[N+](C)(C)CCOP(=O)(O)OP(=O)([O-])OC[C@H]1O[C@@H](n2ccc(N)nc2=O)[C@H](O)[C@@H]1O [Citicoline sodium],remaining activity at 1.25 µM,[1]; Well no.=375,91.9%
same,remaining activity at 3.75 µM,[2]; Well no.=375,101%
C[N+](C)(C)CCOP(=O)(O)OP(=O)([O-])OC[C@H]1O[C@@H](n2ccc(N)nc2=O)[C@H](O)[C@@H]1O [Citicoline],remaining activity at 1.25 µM,[1]; Well no.=8931,89%
same,remaining activity at 3.75 µM,[2]; Well no.=8931,88.7%
C/C(=C/C(=O)O)C(=O)O [Citraconic acid],remaining activity at 1.25 µM,[1]; Well no.=6261,102%
same,remaining activity at 3.75 µM,[2]; Well no.=6261,89.6%
COc1cc(=O)oc(/C=C/C=C/C=C/C(C)=C/[C@]2(C)O[C@H](C)[C@](C)(O)[C@H]2O)c1C [Citreoviridin],remaining activity at 1.25 µM,[1]; Well no.=3391,92.8%
same,remaining activity at 3.75 µM,[2]; Well no.=3391,96.6%
O=C(O)CC(O)(CC(=O)O)C(=O)O [Citric acid],remaining activity at 1.25 µM,[1]; Well no.=6195,104%
same,remaining activity at 1.25 µM,[1]; Well no.=6298,103%
same,remaining activity at 3.75 µM,[2]; Well no.=6195,103%
same,remaining activity at 3.75 µM,[2]; Well no.=6298,104%
CC1=C2C(=CO[C@H](C)[C@H]2C)C(O)=C(C(=O)O)C1=O [Citrinin],remaining activity at 1.25 µM,[1]; Well no.=3171,101%
same,remaining activity at 3.75 µM,[2]; Well no.=3171,107%
Nc1nc(Cl)nc2c1ncn2[C@H]1C[C@H](O)[C@@H](CO)O1 [Cladribine],remaining activity at 1.25 µM,[1]; Well no.=5101,107%
same,remaining activity at 1.25 µM,[1]; Well no.=8050,99%
same,remaining activity at 3.75 µM,[2]; Well no.=5101,108%
same,remaining activity at 3.75 µM,[2]; Well no.=8050,100%
